This note sets out measurements from article PMC7129073 (Clinical Microbiology and Infection, 2015).

Assay [1] concerns S. aureus. As to the kind of experiment: Methicillin resistance, PBSCT patients. The assay is classed as cell-based, Staphylococcus aureus.
The subject of the next assay is CoNS. Briefly: Methicillin resistance, PBSCT patients. The assay is classed as cell-based, Coagulase-negative Staphylococcus.
The subject of assay [2] is Staphylococcus aureus. As to the kind of experiment: EARSS Ireland, invasive isolates. It counts as cell-based. The following applies: Jan'99–Jun'04, 4786 isolates.
In assay [3] the test system is S. aureus. Briefly: Italian survey of severe infections 2003, MIC. The assay is classed as cell-based, Staphylococcus aureus.
A further assay deals with S. epidermidis. As to the kind of experiment: Italian survey of severe infections 2003, MIC. The assay is classed as cell-based, Staphylococcus epidermidis.
The test system of assay [4] is Staphylococcus aureus. As to the kind of experiment: Broth microdilution and E-test, diabetic foot ulcers. It counts as cell-based. Particulars: 81 isolates. Background: Broth dilution looks for growth in wells or tubes with falling amounts of substance.
In assay [5] the test system is Staphylococcus epidermidis. The assay is described as above. It counts as cell-based. Particulars: 53 isolates.
Assay [6] relates to P. aeruginosa strains from CF sputa. Briefly: O-serotyping. It counts as cell-based, Pseudomonas aeruginosa. The following applies: exposure to 1/2–1/16 MIC (ceftazidime) or 1/2–1/8 MIC (ciprofloxacin).
The test system of the next assay is Escherichia coli. As to the kind of experiment: Vitek 2 susceptibility, urine isolates of children. The assay is classed as cell-based.
The test system of assay [7] is S. typhimurium (strain SL1344). As to the kind of experiment: Cell envelope proteome. It counts as cell-based, Salmonella typhimurium. The following applies: 31.2 ng/ml; control 296 ± 77; mean + 1 SD.
A further assay deals with K. pneumoniae. As to the kind of experiment: MIC. The assay is classed as cell-based, Klebsiella pneumoniae. Particulars: BSAC.
The test system of the next assay is Shigella spp. Briefly: Disk diffusion, stool isolates Tehran. The assay is classed as cell-based. Particulars: 96 isolates. (In agar diffusion tests the substance spreads into inoculated agar from a disc or well.)
The test system of a further assay is H. influenzae. The assay is classed as cell-based, Haemophilus influenzae.
The subject of the next assay is S. pneumoniae (SPN). As to the kind of experiment: NCCLS broth microdilution, fluoroquinolones 1999–2004. The assay is classed as cell-based, Streptococcus pneumoniae. Particulars: Streptococcus pneumoniae, read-out: MIC90 during the six years, 1999–2004.
Assay [8] relates to Pseudomonas aeruginosa (PA). Briefly: MIC. The assay is classed as cell-based.
Another assay relates to qnrA. Briefly: qnrA transcription in E. coli transconjugants after quinolone induction. The assay is classed as cell-based, Escherichia coli. The following applies: 0.4 × MIC.
The test system of a further assay is Enterobacteriaceae. Briefly: SMART 2003 Europe, microdilution. The assay is classed as cell-based. The following applies: 1948 isolates.
A further assay deals with E. coli. Briefly: SMART 2003 Europe, microdilution. It counts as cell-based, Escherichia coli. Particulars: 1106 isolates.
Assay [9] relates to S. enterica serotype Typhimurium. Briefly: Susceptibility testing of CipR strains from children and exotic pets. It counts as cell-based. Particulars: Salmonella enterica.
Another assay concerns S. pneumoniae. Briefly: Broth microdilution. It counts as cell-based, Streptococcus pneumoniae. The following applies: 275 isolates.
The next assay deals with nontyphoidal Salmonella. As to the kind of experiment: Agar dilution, isolates from chickens 1998–2004. It counts as cell-based, Salmonella spp. The following applies: Salmonella. On the technique in general: In agar dilution the substance is mixed into plates at graded concentrations.
For assay [10], the system named is S. aureus. As to the kind of experiment: NCCLS broth microdilution, SSTI isolates. It counts as cell-based. The following applies: Staphylococcus aureus.
A further assay has as its system P. stuartii. As to the kind of experiment: E-test MIC and mutant prevention concentration, qnr transconjugand and mutants. The following applies: Providencia stuartii.

Molecules are shown by their SMILES. ≈ marks a conversion by molar mass, not a printed value.

Consider `COc1cccc(OC)c1C(=O)N[C@@H]1C(=O)N2[C@@H]1SC(C)(C)[C@@H]2C(=O)O` [methicillin], for which the resistance is reported as 47.4% in the assay on S. aureus [1], 86.5% in the assay on CoNS, 37.1% with S. aureus [3] and 86.7% in the assay with S. epidermidis. In addition, the resistant isolates with Staphylococcus aureus [2] turned out to be 41.4%; in the assay with Staphylococcus aureus [4], 27.2%; in [5], 35.8%.

With `O=C(O)c1cn(C2CC2)c2cc(N3CCNCC3)c(F)cc2c1=O` [ciprofloxacin], the “change of agglutination type of nine monoagglutinable strains” value in assay [6] is “five out of nine strains”. Moreover, the susceptibility rate in the assay with Escherichia coli (paediatric surgical unit (PSU)) amounted to 96%; with Escherichia coli (paediatric units (PU)) it was 100%. The “number of proteins detected in 2D gels” value in assay [7] turned out to be 153 ± 36. For the same compound, the susceptibility category entry in the assay on K. pneumoniae was “resistant”. Further, the sensitive in the assay on Shigella spp. is listed as 100%. The compound further returned an intermediate susceptible in the assay on H. influenzae of 2.4%. Besides, the MIC90 (usually the lowest concentration that inhibits either 90% of growth or 90% of the strains tested, depending on the study) is 2 µg/mL (≈ 6.04 µM) in the assay with S. pneumoniae (SPN) and ~0.25 µg/mL (≈ 0.754 µM) with nontyphoidal Salmonella. Besides, in assay [8], the “isolates with MPC ≤ 2 μg/ml” value is recorded as 79%. In addition, the MPC range in assay [8] (10 billion organisms on agar) was in the range of 1 to 4 µg/mL. The compound further had an MIC range in assay [8] (patients P1 and P2) of 0.031 to 1 µg/mL. Moreover, the “increase of qnrA transcription over baseline” value in the assay on qnrA (transconjugant from 1960) turned out to be 2.6 times; in the assay with qnrA (transconjugant from N5), 5.1 times; in the assay on qnrA (transconjugant from UAB1) it was 4.3 times. The values for the per cent susceptible in the assay on Enterobacteriaceae and in the assay with E. coli were 84% and 80%, respectively. For the same compound, the MIC (in general, the smallest concentration in the dilution series that meets the test's criterion for growth inhibition) is ≥ 16 µg/mL in assay [9]; 0.03 µg/mL (≈ 0.0905 µM) against P. stuartii (ATCC29914, P. stuartii ATCC 29914 RifR); 3 µg/mL (≈ 9.05 µM) in the assay on P. stuartii (ATCC29914, mutants of ATCC 29914 RifR, SCV, median); 0.5 µg/mL (≈ 1.51 µM) in the assay with P. stuartii (TCPs 123 (qnr-positive transconjugand)); > 32 µg/mL in the assay with P. stuartii (mutants of TCPs 123, SCV, median); 6 µg/mL (≈ 18.1 µM) in the assay on P. stuartii (mutants of TCPs 123, normal colony size, median). The Susceptibility in the assay with S. pneumoniae came to 94.5%. Moreover, the MIC50 (commonly an inhibitory concentration at the 50% level, which refers to growth in some studies and to a panel of isolates in others) in the assay on S. aureus [10] stood at 0.25 µg/mL (≈ 0.754 µM).
